Laboratory results as given in patent US20250275975A1, “Methods of Treating Neuropathies” (Athira Pharma, Inc., priority 2023, published 2025).

Tests used:
Assay type in all cases: in vivo, Sprague Dawley rats
[1] = test system: rat model of STZ-induced DNP; assay: Comparison of dosing schedules, mechanical allodynia (von Frey filaments), Example B2; parameters: key to Efficacy: rescue of mechanical allodynia behavior as measured by paw withdrawal threshold: NS indicates treatment did not significantly affect paw withdrawal threshold vs DNP control.; + indicates p < 0.05 vs DNP control.; ++ indicates p < 0.01 vs DNP control.; +++ indicates p < 0.001 vs DNP control; details: for Efficacy: rescue of mechanical allodynia behavior as measured by paw withdrawal threshold: p vs DNP control
Procedure: (§1) An additional series of studies were performed to compare the ability of Compound 1a to reduce mechanical allodynia and thermal hyperalgesia pain behaviors in hyperglycemic rats dosed once or twice daily. Briefly, a single dose of STZ (55 mg/kg via intravenous (IV)) was administered to induce a Type I diabetic hyperglycemia in male Sprague Dawley rats. Hyperglycemia was confirmed 4 days after STZ administration, with blood glucose levels above 200 mg/dL considered successful model induction. Development of a painful phenotype was confirmed 14 days after STZ administration through assessments of both mechanical allodynia and thermal hyperalgesia. Starting 15 days after disease induction, Compound 1a (8 mg/kg) was orally administered once (QD) or twice (Q12h) daily from day 15 to day 41. Control groups included animals with no diabetic induction (Sham control) and animals with diabetes but treated only with formulation vehicle (DNP [diabetic peripheral neuropathy] control).
(§2) Mechanical allodynia and thermal hyperalgesia were assessed as described in Example B1. Briefly, on study days 21, 27, 35, and 41, mechanical allodynia and thermal hyperalgesia were assessed one-hour post-dose using von Frey filaments (1.4, 4, 10, 15, 26, 48, and 60 g) and the hot plate test (52.5° C.), respectively. Pain level was also measured on day 48 following a 7-day compound-free washout to evaluate the persistence of the effects of administration of Compound 1a.

[2] = test system: STZ DNP rats; assay: Mechanical allodynia rescue assay (Von Frey paw withdrawal threshold), Example B1; parameters: key to Efficacy: rescue of mechanical allodynia behavior as measured by paw withdrawal threshold: NS indicates treatment did not significantly affect paw withdrawal threshold vs disease control.; + indicates p < 0.05 vs disease control.; ++ indicates p < 0.01 vs disease control.; +++ indicates p < 0.001 vs disease control; details: for Efficacy: rescue of mechanical allodynia behavior as measured by paw withdrawal threshold: study day 28 after 14 days of treatment, p vs disease control
From the text: Hyperglycemic rats consistently develop neuropathic pain-associated behaviors including mechanical allodynia. Allodynia refers to a type of neuropathic pain characterized by increased sensitivity to stimuli that are not normally painful. Mechanical allodynia is quantified in rats by determination of the force required to induce a withdrawal of the paw and is negatively associated with allodynia such that, the lower the force required to induce paw withdrawal, the greater the pain behavior.
(§3) A series of studies were performed to determine the ability of HGF/MET positive modulator compounds to reduce the mechanical allodynia pain behaviors in hyperglycemic rats. A single dose of STZ (55 mg/kg via intravenous (IV)) was administered to induce a Type I diabetic hyperglycemia in male Sprague Dawley rats. Hyperglycemia was confirmed 4 days after STZ administration, with blood glucose levels above 200 mg/dL considered successful model induction. 14 days after disease induction, test compound treatment was initiated and continued as daily compound administration over the remaining course of the study. Route and dose for each compound were determined by pharmacokinetic and distribution modelling. Control groups included animals with no diabetic induction (Sham control), animals with diabetes but treated only with formulation vehicle (DNP (diabetic peripheral neuropathy) control), and disease animals treated with pregabalin (30 mg/kg via PO), which is known to reduce neuropathic pain behaviors.
(§4) Changes to neuropathic pain behaviors were assessed after 14 days of compound treatment on study day 28. Mechanical allodynia was tested by placing each animal on an elevated wire grid and stimulating the plantar surface of the right rear paw with a series of filaments corresponding to increasing orders of force, reaching a maximum force of 60 grams (Aesthesio manual Von Frey filaments). The force of the filament that causes paw withdrawal was considered the paw withdrawal threshold in grams. Pain sensitivity in response to thermal hyperalgesia was determined by using hot plate method and represented as paw withdrawal latency (PWL). Rats were placed on the hot plate (52.5° C.), and the time taken to show the nocifensive behavior (either licking or jumping) of any of their paws was recorded. Statistical comparison of treatment groups to DNP control groups was performed by one-way ANOVA followed by Dunnett's multiple comparisons test.

[3] = test system: rat model of STZ-induced DNP; assay: Comparison of dosing schedules, thermal hyperalgesia (hot plate test), Example B2; parameters: key to Efficacy: rescue of thermal hyperalgesia behavior as measured by paw withdrawal latency: NS indicates treatment did not significantly affect paw withdrawal latency vs DNP control.; + indicates p < 0.05 vs DNP control.; ++ indicates p < 0.01 vs DNP control.; +++ indicates p < 0.001 vs DNP control; details: for Efficacy: rescue of thermal hyperalgesia behavior as measured by paw withdrawal latency: p vs DNP control
Procedure: as §1, §2

[4] = test system: STZ DNP rats; assay: Thermal hyperalgesia rescue assay (hot plate paw withdrawal latency), Example B1; parameters: key to Efficacy: rescue of thermal hyperalgesia behavior as measured by paw withdrawal latency: NS indicates treatment did not significantly affect paw withdrawal latency vs disease control.; + indicates p < 0.05 vs disease control.; ++ indicates p < 0.01 vs disease control.; +++ indicates p < 0.001 vs disease control; details: for Efficacy: rescue of thermal hyperalgesia behavior as measured by paw withdrawal latency: study day 28 after 14 days of treatment, hot plate 52.5° C., p vs disease control
Procedure: as §3, §4

[5] = 8 mg/kg PO Q12 h from day 15 to day 41, Day 21, one-hour post-dose
[6] = 8 mg/kg PO Q12 h from day 15 to day 41, Day 27, one-hour post-dose
[7] = 8 mg/kg PO Q12 h from day 15 to day 41, Day 48, after 7-day compound-free washout
[8] = 8 mg/kg PO QD from day 15 to day 41, Day 21, one-hour post-dose
[9] = 8 mg/kg PO QD from day 15 to day 41, Day 27, one-hour post-dose
[10] = 8 mg/kg PO QD from day 15 to day 41, Day 48, after 7-day compound-free washout
[11] = 8 mg/kg PO QD or Q12h, starting on day 27
[12] = day 48, after 7-day compound-free washout

CCC(C)CN1CC2N(C(=O)c3ccc(C(F)(F)F)cc3)CCC(=O)N2[C@@H](C)C1=O (some centres unmarked) [Compound 1a]
Efficacy: rescue of mechanical allodynia behavior as measured by paw withdrawal threshold [1, 5]: NS
Efficacy: rescue of mechanical allodynia behavior as measured by paw withdrawal threshold [1, 6]: ++ (++ indicates p < 0.01 vs DNP control.)
Efficacy: rescue of mechanical allodynia behavior as measured by paw withdrawal threshold [1, 7]: +++ (+++ indicates p < 0.001 vs DNP control.)
Efficacy: rescue of mechanical allodynia behavior as measured by paw withdrawal threshold [1, 8]: NS
Efficacy: rescue of mechanical allodynia behavior as measured by paw withdrawal threshold [1, 9]: ++ (++ indicates p < 0.01 vs DNP control.)
Efficacy: rescue of mechanical allodynia behavior as measured by paw withdrawal threshold [1, 10]: NS
reversal of the increase in pain-related behaviors, mechanical allodynia [1, 11]: effectively reversed
persistence of pain-reducing effects, mechanical allodynia [1, 12]: sustained
Efficacy: rescue of mechanical allodynia behavior as measured by paw withdrawal threshold ([2]; 0.05 mg/kg PO daily): NS
Efficacy: rescue of mechanical allodynia behavior as measured by paw withdrawal threshold ([2]; 0.2 mg/kg PO daily): NS
Efficacy: rescue of mechanical allodynia behavior as measured by paw withdrawal threshold ([2]; 2 mg/kg PO daily): +++ (+++ indicates p < 0.001 vs disease control.)
Efficacy: rescue of mechanical allodynia behavior as measured by paw withdrawal threshold ([2]; 8 mg/kg PO daily): +++ (+++ indicates p < 0.001 vs disease control.)
rescue of the mechanical allodynia behavior as measured by paw withdrawal threshold ([2]; STZ DNP rats): significant rescue
Efficacy: rescue of thermal hyperalgesia behavior as measured by paw withdrawal latency [3, 5]: NS
Efficacy: rescue of thermal hyperalgesia behavior as measured by paw withdrawal latency [3, 6]: + (+ indicates p < 0.05 vs DNP control.)
Efficacy: rescue of thermal hyperalgesia behavior as measured by paw withdrawal latency [3, 7]: +++ (+++ indicates p < 0.001 vs DNP control.)
Efficacy: rescue of thermal hyperalgesia behavior as measured by paw withdrawal latency [3, 8]: NS
Efficacy: rescue of thermal hyperalgesia behavior as measured by paw withdrawal latency [3, 9]: + (+ indicates p < 0.05 vs DNP control.)
Efficacy: rescue of thermal hyperalgesia behavior as measured by paw withdrawal latency [3, 10]: +++ (+++ indicates p < 0.001 vs DNP control.)
reversal of the increase in pain-related behaviors, thermal allodynia [3, 11]: effectively reversed
persistence of pain-reducing effects, thermal allodynia [3, 12]: sustained
Efficacy: rescue of thermal hyperalgesia behavior as measured by paw withdrawal latency ([4]; 0.05 mg/kg PO daily): NS
Efficacy: rescue of thermal hyperalgesia behavior as measured by paw withdrawal latency ([4]; 0.2 mg/kg PO daily): NS
Efficacy: rescue of thermal hyperalgesia behavior as measured by paw withdrawal latency ([4]; 2 mg/kg PO daily): +++ (+++ indicates p < 0.001 vs disease control.)
Efficacy: rescue of thermal hyperalgesia behavior as measured by paw withdrawal latency ([4]; 8 mg/kg PO daily): +++ (+++ indicates p < 0.001 vs disease control.)
rescue of thermal allodynia behavior as measured by paw withdrawal latency ([4]; STZ DNP rats): significant rescue
